According to ChEMBL document CHEMBL3885861, “Open TG-GATES”:

Organism: Rattus norvegicus
Test: Open TG-GATES - Regimen: Single
Type: toxicity, organism-based, Sprague-Dawley
Parameters: regimen Single, gender Male, age 6 weeks
Details: in vivo, po, route gavage; for Hb / Ht / Lym / MCH / MCHC / MCV / Mono / Neu / PT / Plat / RBC / Ret / WBC / APTT / Bas / Eos / Fbg: tissue Blood; for KIDNEY_L / KIDNEY_R / KIDNEY_TOTAL: tissue Kidney; for LIVER: tissue Liver; for A/G / ALP / ALT / AST / BUN / CRE / Ca / Cl / DBIL / GLC / IP / K / LDH / Na / PL / RALB / TBIL / TC / TG / TP / gamma-GTP: tissue Plasma
[1] = 15 mg/kg, 6 h, dose level Middle
[2] = 15 mg/kg, 9 h, dose level Middle
[3] = 15 mg/kg, 24 h, dose level Middle

## COc1ccc2c(c1)c(CC(=O)O)c(C)n2C(=O)c1ccc(Cl)cc1 [INDOMETHACIN]
[1]
  Hb: 14 g/dL
  Ht: 38.4%
  Lym: 71.4%
  MCH: 22.9 pg
  MCHC: 36.6%
  MCV: 62.7 fL
  Mono: 3.4%
  Neu: 22.8%
  PT: 12.2 s
  Plat: 116.9 x10_4/uL
  RBC: 613.2 x10_4/ul
  Ret: 7.8%
  WBC: 112.3 x10_2/uL
  KIDNEY_L: 1 g
  KIDNEY_R: 1 g
  KIDNEY_TOTAL: 2 g
  LIVER: 9.3 g
  A/G: 1.6
  ALP: 853.6 IU/L
  ALT: 39.6 IU/L
  AST: 70 IU/L
  BUN: 12.8 mg/dL
  CRE: 0.4 mg/dL
  Ca: 10.5 mg/dL
  Cl: 103.4 meq/L
  DBIL: 0.074 mg/dL
  GLC: 200.2 mg/dL
  IP: 9.5 mg/dL
  K: 4.1 meq/L
  LDH: 204.8 IU/L
  Na: 140.8 meq/L
  PL: 135.6 mg/dL
  RALB: 3.2 g/dL
  TBIL: 0.1 mg/dL
  TC: 74.4 mg/dL
  TG: 66.6 mg/dL
  TP: 5.3 g/dL
  gamma-GTP: 1.2 IU/L
[2]
  TERMINAL_BW: 220.7 g
  APTT: 18 s
  Bas: 0%
  Eos: 0.4%
  Fbg: 217.2 mg/dL
  Hb: 13.6 g/dL
  Ht: 37.1%
  Lym: 69.4%
  MCH: 22.4 pg
  MCHC: 36.6%
  MCV: 61.1 fL
  Mono: 3.4%
  Neu: 24.8%
  PT: 12.5 s
  Plat: 119.6 x10_4/uL
  RBC: 607 x10_4/ul
  Ret: 7.9%
  WBC: 101.8 x10_2/uL
  KIDNEY_L: 0.9 g
  KIDNEY_R: 0.9 g
  KIDNEY_TOTAL: 1.9 g
  LIVER: 8.7 g
  A/G: 1.6
  ALP: 719.4 IU/L
  ALT: 29.2 IU/L
  AST: 63.8 IU/L
  BUN: 13 mg/dL
  CRE: 0.3 mg/dL
  Ca: 10.4 mg/dL
  Cl: 104.2 meq/L
  DBIL: 0.07 mg/dL
  GLC: 186.8 mg/dL
  IP: 10 mg/dL
  K: 4 meq/L
  LDH: 202.2 IU/L
  Na: 141.4 meq/L
  PL: 125.4 mg/dL
  RALB: 3.2 g/dL
  TBIL: 0.1 mg/dL
  TC: 69.6 mg/dL
  TG: 36.8 mg/dL
  TP: 5.2 g/dL
  gamma-GTP: 1 IU/L
[3]
  TERMINAL_BW: 227.1 g
  APTT: 19.7 s
  Bas: 0.2%
  Eos: 0.8%
  Fbg: 294.2 mg/dL
  Hb: 10.8 g/dL
  Ht: 31%
  Lym: 57.8%
  MCH: 21.3 pg
  MCHC: 34.9%
  MCV: 61.2 fL
  Mono: 2.4%
  Neu: 37.8%
  PT: 12.2 s
  Plat: 94.5 x10_4/uL
  RBC: 509.2 x10_4/ul
  Ret: 7.9%
  WBC: 93.5 x10_2/uL
  KIDNEY_L: 1 g
  KIDNEY_R: 1 g
  KIDNEY_TOTAL: 2.1 g
  LIVER: 9.5 g
  A/G: 1.3
  ALP: 547.6 IU/L
  ALT: 28 IU/L
  AST: 57 IU/L
  BUN: 14.4 mg/dL
  CRE: 0.4 mg/dL
  Ca: 9.8 mg/dL
  Cl: 105.4 meq/L
  DBIL: 0.06 mg/dL
  GLC: 173.2 mg/dL
  IP: 9.6 mg/dL
  K: 4.2 meq/L
  LDH: 180.2 IU/L
  Na: 141.2 meq/L
  PL: 127 mg/dL
  RALB: 2.5 g/dL
  TBIL: 0.1 mg/dL
  TC: 72.8 mg/dL
  TG: 80.8 mg/dL
  TP: 4.3 g/dL
  gamma-GTP: 1.4 IU/L
50 mg/kg, 3 h, dose level High
  TERMINAL_BW: 226 g
  APTT: 21.4 s
  Bas: 0.2%
  Eos: 1%
  Fbg: 216.6 mg/dL
  Hb: 13.8 g/dL
  Ht: 37.8%
  Lym: 73.6%
  MCH: 22.2 pg
  MCHC: 36.4%
  MCV: 60.9 fL
  Mono: 2.4%
  Neu: 22%
  PT: 12 s
  Plat: 119.2 x10_4/uL
  RBC: 621.6 x10_4/ul
  Ret: 8.1%
  WBC: 114.1 x10_2/uL
  KIDNEY_L: 0.9 g
  KIDNEY_R: 0.9 g
  KIDNEY_TOTAL: 1.9 g
  LIVER: 9.8 g
  A/G: 1.6
  ALP: 971 IU/L
